# Assay results as given in ChEMBL document CHEMBL2203001, “Flavonoid glycosides from the leaves of Allium victorialis var. platyphyllum and their anti-neuroinflammatory effects” (Bioorg Med Chem Lett, 2012).
# pIC50: −log10 of the molar value.
# Assays:
# [1] = Cytotoxicity against mouse BV2 cells assessed as cell viability at 20 uM by MTT assay relative to LPS-treated cells; format: cell-based, BV-2; settings: read-out: Activity
# [2] = test system: BV-2; test: Antineuroinflammatory activity against mouse BV2 cells assessed as inhibition of LPS-induced nitric oxide production after 24 hrs by Griess method; format: functional, cell-based; settings: BV-2, 24 h
pIC50 [2],SMILES,viability at 20 µM [1] [%]
4.29,O=c1c(O)c(-c2ccc(O[C@@H]3O[C@H](CO)[C@@H](O)[C@H](O)[C@H]3O)c(O)c2)oc2cc(O[C@@H]3O[C@H](CO)[C@@H](O)[C@H](O)[C@H]3O)cc(O)c12,105
4.54,O=c1c(O[C@@H]2O[C@H](CO)[C@@H](O)[C@H](O)[C@H]2O)c(-c2ccc(O)cc2)oc2cc(O[C@@H]3O[C@H](CO)[C@@H](O)[C@H](O)[C@H]3O)cc(O)c12,106
4.33,O=C(/C=C/c1ccc(O)cc1)O[C@H]1[C@H](Oc2c(-c3ccc(O)cc3)oc3cc(O[C@@H]4O[C@H](CO)[C@@H](O)[C@H](O)[C@H]4O)cc(O)c3c2=O)O[C@H](CO)[C@@H](O)[C@@H]1O,105
4.79,CNC(=N)NCCC[C@H](N)C(=O)O [TILARGININE],98.2
4.36,COc1cc(/C=C/C(=O)O[C@H]2[C@H](Oc3c(-c4ccc(O[C@@H]5O[C@H](CO)[C@@H](O)[C@H](O)[C@H]5O)cc4)oc4cc(O[C@@H]5O[C@H](CO)[C@@H](O)[C@H](O)[C@H]5O)cc(O)c4c3=O)O[C@H](CO)[C@@H](O)[C@@H]2O)ccc1O,101
4.70,O=c1c(O[C@@H]2O[C@H](CO)[C@@H](O)[C@H](O)[C@H]2O)c(-c2ccc(O)c(O)c2)oc2cc(O)cc(O)c12 [ISOQUERCETIN],97.3
3.91,C[C@@H]1O[C@@H](OC[C@H]2O[C@@H](Oc3c(-c4ccc(O)cc4)oc4cc(O)cc(O)c4c3=O)[C@H](O)[C@@H](O)[C@@H]2O)[C@H](O)[C@H](O)[C@H]1O [NICOTIFLOROSIDE],104
4.34,O=c1c(O[C@@H]2O[C@H](CO)[C@@H](O)[C@H](O)[C@H]2O)c(-c2ccc(O[C@@H]3O[C@H](CO)[C@@H](O)[C@H](O)[C@H]3O)c(O)c2)oc2cc(O)cc(O)c12,100
4.69,COc1cc(/C=C/C(=O)O[C@H]2[C@H](Oc3c(-c4ccc(O)cc4)oc4cc(O[C@@H]5O[C@H](CO)[C@@H](O)[C@H](O)[C@H]5O)cc(O)c4c3=O)O[C@H](CO)[C@@H](O)[C@@H]2O)ccc1O [ALLIVICTOSIDE F],100
4.11,O=c1c(O[C@@H]2O[C@H](CO)[C@@H](O)[C@H](O)[C@H]2O)c(-c2ccc(O)cc2)oc2cc(O)cc(O)c12 [ASTRAGALIN],106
4.68,COc1cc(/C=C/C(=O)O[C@H]2[C@H](Oc3c(-c4ccc(O[C@@H]5O[C@H](CO)[C@@H](O)[C@H](O)[C@H]5O)cc4)oc4cc(O)cc(O)c4c3=O)O[C@H](CO)[C@@H](O)[C@@H]2O)ccc1O [ALLIVICTOSIDE B],107
4.31,O=C(/C=C\c1ccc(O)cc1)O[C@H]1[C@H](Oc2c(-c3ccc(O[C@@H]4O[C@H](CO)[C@@H](O)[C@H](O)[C@H]4O)cc3)oc3cc(O[C@@H]4O[C@H](CO)[C@@H](O)[C@H](O)[C@H]4O)cc(O)c3c2=O)O[C@H](CO)[C@@H](O)[C@@H]1O [ALLIVICTOSIDE D],100
3.77,O=c1c(O[C@@H]2O[C@H](CO)[C@@H](O)[C@H](O)[C@H]2O)c(-c2ccc(O[C@@H]3O[C@H](CO)[C@@H](O)[C@H](O)[C@H]3O)cc2)oc2cc(O)cc(O)c12,99.1
4.52,COc1cc(/C=C/C(=O)O[C@H]2[C@H](Oc3c(-c4ccc(O[C@H]5O[C@@H](CO)[C@H](O)[C@@H](O)[C@@H]5O)c(O)c4)oc4cc(O[C@@H]5O[C@H](CO)[C@@H](O)[C@H](O)[C@H]5O)cc(O)c4c3=O)O[C@H](CO)[C@@H](O)[C@@H]2O)ccc1O [ALLIVICTOSIDE H],105
4.31,O=C(/C=C/c1ccc(O)cc1)O[C@@H]1[C@@H](O)[C@H](Oc2c(-c3ccc(O[C@@H]4O[C@H](CO)[C@@H](O)[C@H](O)[C@H]4O)cc3)oc3cc(O[C@@H]4O[C@H](CO)[C@@H](O)[C@H](O)[C@H]4O)cc(O)c3c2=O)O[C@H](CO)[C@H]1O [ALLIVICTOSIDE E],104
< 3.70,O=C(/C=C/c1ccc(O)cc1)O[C@H]1[C@H](Oc2c(-c3ccc(O[C@H]4O[C@@H](CO)[C@H](O)[C@@H](O)[C@@H]4O)c(O)c3)oc3cc(O)cc(O)c3c2=O)O[C@H](CO)[C@@H](O)[C@@H]1O [ALLIVICTOSIDE G],101
4.48,O=c1c(O[C@@H]2O[C@H](CO)[C@@H](O)[C@H](O)[C@H]2O)c(-c2ccc(O[C@@H]3O[C@H](CO)[C@@H](O)[C@H](O)[C@H]3O)cc2)oc2cc(O[C@@H]3O[C@H](CO)[C@@H](O)[C@H](O)[C@H]3O)cc(O)c12,102
4.26,O=C(/C=C/c1ccc(O)cc1)O[C@H]1[C@H](Oc2c(-c3ccc(O[C@@H]4O[C@H](CO)[C@@H](O)[C@H](O)[C@H]4O)cc3)oc3cc(O)cc(O)c3c2=O)O[C@H](CO)[C@@H](O)[C@@H]1O [ALLIVICTOSIDE A],109
4.36,O=C(/C=C/c1ccc(O)cc1)O[C@H]1[C@H](Oc2c(-c3ccc(O[C@@H]4O[C@H](CO)[C@@H](O)[C@H](O)[C@H]4O)cc3)oc3cc(O[C@@H]4O[C@H](CO)[C@@H](O)[C@H](O)[C@H]4O)cc(O)c3c2=O)O[C@H](CO)[C@@H](O)[C@@H]1O [ALLIVICTOSIDE C],104
4.67,COc1cc(/C=C/C(=O)O[C@H]2[C@H](Oc3cc(O)c4c(=O)c(O[C@@H]5O[C@H](CO)[C@@H](O)[C@H](O)[C@H]5O)c(-c5ccc(O)cc5)oc4c3)O[C@H](CO)[C@@H](O)[C@@H]2O)ccc1O,106

SMILES,pIC50 [2],viability at 20 µM [1] [%]
O=c1c(O)c(-c2ccc(O)cc2)oc2cc(O[C@@H]3O[C@H](CO)[C@@H](O)[C@H](O)[C@H]3O)cc(O)c12,4.41,107
